Entries after “also recorded” stand apart in the source; their conditions may differ.
What was measured:
NOP-1 stability by LC/MS = format: physicochemical; settings: NOP-1 500 µg in 100 µl PBS pH 6.7, 0, 5, 10 and 15 days, room temperature; Supelcosil C18, 215 nm; identity by mass spectrometry
Procedure: Figure S4: Analysis of NOP-1 stability by liquid chromatography (LC).
Lyophilized NOP-1 (500 µg) was dissolved in 100 µl PBS pH 6.7, incubated for 0 days, 5 days, 10 days and 15 days at room temperatures and then applied to a Supelcosil C18 column (4.6x150 mm). The column was washed with 15 ml H2O with 0.1% TFA (buffer A).
Elution was performed with a linear gradient to 100% buffer B (100% acetonitrile with 0.1% TFA) over 30 min at a flow rate of 1 ml min-1. Detection was set to 215 nm. Identity of the peptide was confirmed by mass spectrometry. […]

[1] = tested on: green, immature tomato fruits; set-up: method as in PMID 25843012; settings: cited from earlier work
[2] = Fluorescence of the dyes on their own (FRET control); settings: 100 μM peptide; free dyes
Description: For this purpose, we made use of a fluorescence resonance energy transfer (FRET)-based in vitro assay, originally established for the respective Arabidopsis signaling proteins. Recombinant ethylene proteins LeETR1 and LeEIN2^462–1316 were labeled with fluorescent Alexa dyes[36] as described in the Methods section. LeETR1 was labeled with Alexa Fluor 488, while LeEIN2^462–1316 was labeled with Alexa Fluor 568. As the emission spectrum of the donor fluorophore partially overlaps with the excitation spectrum of the acceptor fluorophore, the dyes form a FRET pair and energy transfer from the donor to the acceptor fluorophore is possible when both probes get in close proximity. […] Formation of the complex is monitored by FRET from the donor molecule Alexa Fluor 488 to the acceptor molecule Alexa Fluor 568. Processes or molecules that prevent complex formation result in a reduced FRET from the donor to the acceptor, which is detected as reduced acceptor fluorescence at the emission maximum.
(b) Calculation of IC50 value for NOP-1. Data were obtained in the FRET-assay in presence of increasing concentrations of NOP-1 peptide. […] (c) Determination of Kd value of NOP-1 binding to LeETR1 based on MST is illustrated. MST-signal is plotted against the NOP-1 concentration. […] All data (a,b,c) represent the mean +/− standard deviation.

[3] = tested on: climacteric tomato fruits; assay: Real-time monitoring of ethylene production of tomato fruits (laser-based ethylene detector); format: in vivo, tomato (Solanum pimpinellifolium)
Procedure: Aminoethoxyvinyl glycine (AVG) was purchased from Sigma-Aldrich, St Louis, MO (purity ~95%). SmartFresh^SM (AgroFresh, Spring House, PA) was used as sugar-based powder formulation of 1-MCP. Concentration of 1-MCP was calculated according to the percentage of active ingredient (0.14%) and release from the SmartFresh^SM powder. For comparison concentration of all inhibitors are expressed in terms of molarity. For treatment of tomato fruits with NOP-1, AVG and MCP, inhibitors were dissolved in the FRET buffer described in the previous section to a final concentration of 200 μM. Green tomato fruits (Solanum pimpinellifolium) from the same estimated developmental stage were harvested from the panicle and water-cleaned. 300 μL of the inhibitor solution was applied onto the tomato surface with a brush and the fruits were air-dried for 30 min. As an alternative application, tomato fruits were plunged into 2 mL of the inhibitor solution and incubated for 30 min in this solution or 200 μL of the peptide-containing solution were carefully injected into the tomato tissue by a hypodermic syringe. Three individual tomato fruits were treated for the different applications of the peptide in order to document the ripening process. After inhibitor-treatment tomato fruits were transferred to a vial closed with aluminum foil and stored in the dark at room temperature. Maturation process was documented every second day for at least 20 days. For measurement of ethylene production, green tomato fruits were treated as described above.
Real-time monitoring of ethylene production
Ethylene production was continuously monitored over 19 days with a laser-based ethylene detector (ETD-300; Sensor Sense BV; Nijmegen, Netherlands). A detailed description of the system has been given elsewhere. Briefly, the detector consists of a laser emitting radiation in the 10 micrometers infrared wavelength region and a photoacoustic cell, in which ethylene is detected due to its strong fingerprint-like absorption pattern in this region. Inside the photoacoustic cell ethylene can absorb the laser radiation and converts it into kinetic energy by energy exchange processes, resulting in local heating of the sample. By switching on and off the light, rapid heating/cooling can occur, giving rise to a periodical pressure change, i.e. sound wave. The amplitude of these waves is directly proportional to the concentration of ethylene in the photoacoustic cell and can be detected very accurately with sensitive miniature microphones.
Six tomato fruits for each treatment, including an untreated group (buffer control, CT) were placed into glass cuvettes (150 ml volume) and connected to a gas flow through system (VC-6, Sensor Sense BV; Nijmegen, Netherlands) under a continuous flow routine as described in Ref. [58]. The […] ensured that the samples were continuously flushed with air at a constant flow of 2 l/h and allowed automated sampling of ethylene from the headspace of six cuvettes. Each cuvette was alternatively connected to the ETD-300 and ethylene emitted in the headspace was measured for 12 min. […] The ethylene production was related to the emission rate by multiplying the measured value with the flow rate (expressed in nanoliters per hour, nl/h) and further normalized with the fresh weight (expressed in grams, gFW); the end result being nanoliters per hour per gram of fresh weight, nl/h∙gFW.

living plants = settings: cited from earlier work

In the case of `CC(C)C[C@H](NC(=O)[C@H](CCCNC(=N)N)NC(=O)[C@H](CCCNC(=N)N)NC(=O)[C@H](CCCCN)NC(=O)[C@H](Cc1ccc(O)cc1)NC(=O)[C@H](CCCNC(=N)N)NC(=O)[C@H](CCCCN)NC(=O)[C@@H](N)CC(C)C)C(N)=O` [NOP-1, LKRYKRRL-NH2], the “stability of the peptide” value (NOP-1 stability by LC/MS) is listed as “stable for several days at room temperature under normal conditions”, the “effect on fruit ripening in tomato, previous work” value [1] is listed as “efficiently reduced fruit ripening in tomato” and the “effect on fluorescence of the dyes on their own” value [2] is listed as “not affected by the peptides; also recorded: Neither of both peptides affected fluorescence of the free, unlabeled dyes”. For the same compound, the “time of ethylene production peak, injected or incubated fruits” value ([3]; 200 μM NOP-1, injected or incubated) was 6 to 8 days, the “initial ethylene burst in injected fruits” value ([3]; 200 μM NOP-1, injected, attributed to wounding) was “ethylene burst detected in the injected fruits; also recorded: initial burst in ethylene production within the first hours” and the “time of ethylene production peak, surface-treated fruits” value ([3]; 200 μM NOP-1, surface-treated, same time as control fruits) was ~12 days. The “ethylene production compared with controls (in words)” value ([3]; 200 μM NOP-1, surface treatment, injection, incubation, versus untreated fruits and buffer control, six fruits per treatment, 21 °C, dark) was “do not significantly differ from controls; also recorded: No reduction in ethylene production is evident; also recorded: modest increase rather than an inhibition of ethylene production”, the “Ethylene production over 18 days (total ethylene release, average of applications)” value ([3]; fruits treated with 200 μM NOP-1, average of surface-application, incubation and injection, injected fruits corrected for initial ethylene burst, six fruits per treatment, 21 °C, dark) was 616 +/- 46 nl/gFW and the “inhibition of ethylene responses in living plants” value (living plants) was “potent inhibitor of ethylene responses in living plants”.

Source: article PMC4967898, “Peptides interfering with protein-protein interactions in the ethylene signaling pathway delay tomato fruit ripening” (Scientific Reports, 2016)
